Source: article PMC11456916, “A screen for cell envelope stress uncovers an inhibitor of prolipoprotein diacylglyceryl transferase, Lgt, in Escherichiacoli” (iScience, 2024)

Key:
[1] = system: 356 CRISPRi constructs in E. coli ΔtolC-pore; assay: CRISPRi collection fitness screen with sub-inhibitory compound; assay type: cell-based; settings: for Growth, mean colony biomass (n=4): +250 ng/ml Vancomycin
Description: To that end, we screened the E. coli CRISPRi collection in the ΔtolC-pore genetic background with a sub-inhibitory concentration of MAC-0452936 and measured the fitness of all 356 CRISPRi mutants (Figure 4C and Data S4). […] To that end, we introduced either an arabinose inducible copy of lgt supplied on the pCHAP9231 plasmid[48] or the pBAD19s plasmid as a control into E. coli ΔtolC-pore and tested the potency of MAC-0452936 (Figure 4E). […] To test this hypothesis, we constructed E. coli ΔlgtΔtolC-pore with pCHAP9231[48] so that lgt expression was driven solely by arabinose from the plasmid.
For screens of the CRISPRi collection with MAC-0452936, the mobile CRISPRi collection was first conjugated into E. coli ΔtolC-pore as previously described.[30] The CRISPRi collection was then arrayed on solid agar at 1536 density using the Singer-ROTOR, such that each CRISPRi strain is arrayed in technical quadruplicate. […] The screens were conducted without CRISPRi induction, using just the 5–10% basal knockdown from the pFD152 CRISPRi plasmid. Following overnight growth, plates were imaged using high-resolution scanners (Epson Perfection v750), and colony biomass for each mutant was determined.

[2] = system: E. coli ΔtolC-pore harboring CRISPRi plasmids targeting lgt; assay: CRISPRi lgt knockdown MIC (low-copy enhancement); assay type: cell-based; settings: two gRNAs targeting lgt, 100 ng/mL aTc
Description: We next turned to genetic approaches to confirm the mechanism of action of MAC-0452936. […] To that end, we screened the E. coli CRISPRi collection in the ΔtolC-pore genetic background with a sub-inhibitory concentration of MAC-0452936 and measured the fitness of all 356 CRISPRi mutants (Figure 4C and Data S4). […] Depletion of Lgt by CRISPRi provided supporting evidence that MAC-0452936 targeted Lgt in E. coli; however, we sought to confirm this observation using a parallel genetic approach. We hypothesized that MAC-0452936 potency would also be affected by high-copy expression of lgt. To that end, we introduced either an arabinose inducible copy of lgt supplied on the pCHAP9231 plasmid[48] or the pBAD19s plasmid as a control into E. coli ΔtolC-pore and tested the potency of MAC-0452936 (Figure 4E). Induction of lgt expression with arabinose suppressed the activity of MAC-0452936 by about 8-fold. […] To test this hypothesis, we constructed E. coli ΔlgtΔtolC-pore with pCHAP9231[48] so that lgt expression was driven solely by arabinose from the plasmid. […] To test this observation with MAC-0452936, we introduced an lpp deletion into our screening strain E. coli ΔtolC-pore and assessed the activity of our Lgt inhibitor in this mutant background. […]

## CN[C@H](CC(C)C)C(=O)N[C@H]1C(=O)N[C@@H](CC(N)=O)C(=O)N[C@H]2C(=O)N[C@H]3C(=O)N[C@H](C(=O)N[C@H](C(=O)O)c4cc(O)cc(O)c4-c4cc3ccc4O)[C@H](O)c3ccc(c(Cl)c3)Oc3cc2cc(c3O[C@@H]2O[C@H](CO)[C@@H](O)[C@H](O)[C@H]2O[C@H]2C[C@](C)(N)[C@H](O)[C@H](C)O2)Oc2ccc(cc2Cl)[C@H]1O [Vancomycin]
[1]; gRNA asnS
  Growth, mean colony biomass (n=4): 0.957
[1]; gRNA cdsA, 1μg/ml MAC0452936, 6ng/ml LolCDE-in-1, 250 ng/ml Vancomycin, 7 ng/ml CHIR090, n=4
  Growth represented as mean colony biomass: 1.2659
[1]; gRNA csrA
  Growth, mean colony biomass (n=4): 0.9477
[1]; gRNA dnaC
  Growth, mean colony biomass (n=4): 1.003
[1]; gRNA dut
  Growth, mean colony biomass (n=4): 1.0326
[1]; gRNA folA
  Growth, mean colony biomass (n=4): 1.027
[1]; gRNA folC
  Growth, mean colony biomass (n=4): 1.033
[1]; gRNA ftsA
  Growth, mean colony biomass (n=4): 0.9398
[1]; gRNA glmS
  Growth, mean colony biomass (n=4): 1.002
[1]; gRNA hemD
  Growth, mean colony biomass (n=4): 1.042
[1]; gRNA lexA
  Growth, mean colony biomass (n=4): 1.232
[1]; gRNA mnmA
  Growth, mean colony biomass (n=4): 1.044
[1]; gRNA msbA
  Growth, mean colony biomass (n=4): 1.015
[1]; gRNA mukF
  Growth, mean colony biomass (n=4): 1.002
[1]; gRNA nadK
  Growth, mean colony biomass (n=4): 0.9893
[1]; gRNA prmC
  Growth, mean colony biomass (n=4): 1.009
[1]; gRNA pssA
  Growth, mean colony biomass (n=4): 0.9581
[1]; gRNA ptsI
  Growth, mean colony biomass (n=4): 1.038
[1]; gRNA ribD
  Growth, mean colony biomass (n=4): 1.045
[1]; gRNA rne
  Growth, mean colony biomass (n=4): 1.0315
[1]; gRNA rplA
  Growth, mean colony biomass (n=4): 0.9936
[1]; gRNA rplX
  Growth, mean colony biomass (n=4): 1.03
[1]; gRNA rpmC
  Growth, mean colony biomass (n=4): 1.003
[1]; gRNA rpoE
  Growth, mean colony biomass (n=4): 1.036
[1]; gRNA rpsG
  Growth, mean colony biomass (n=4): 1.014
[1]; gRNA rpsK
  Growth, mean colony biomass (n=4): 0.9986
[1]; gRNA rpsR
  Growth, mean colony biomass (n=4): 0.9771
[1]; gRNA rpsT
  Growth, mean colony biomass (n=4): 1.039
[1]; gRNA suhB
  Growth, mean colony biomass (n=4): 0.9724
[1]; gRNA tsaE
  Growth, mean colony biomass (n=4): 0.9903
[1]; gRNA ygeN
  Growth, mean colony biomass (n=4): 0.9481
[1]; gRNA yqeL
  Growth, mean colony biomass (n=4): 1.455
[1]; gRNA zipA
  Growth, mean colony biomass (n=4): 1.731
[1]; sub-inhibitory (¼ MIC) concentration, LB agar, basal knockdown
  growth defect of the lgt CRISPRi mutant in the presence of compound: did not demonstrate a growth defect
[2]
  sensitization upon depletion of Lgt with CRISPRi constructs: not to either of the negative control antibiotics
